Reference: ChEMBL document CHEMBL1127842, “The desferrithiocin pharmacophore” (1994)
Values joined by “and” are separate entries in the source; they are usually repeats but may differ in a detail not shown here. Equal values may be shown once. Active and inactive are the calls of the source. The rule behind the calls is not given here.

Legend:
Rattus norvegicus [1] = organism: Rattus norvegicus; test: Efficiency of iron clearance was determined; type: functional; set-up: concentration or dose not given beside the values
Rattus norvegicus [2] = test: Tested for Iron clearance of compound, when administered subcutaneously at a dose 150 umol/kg in bile duct cannulated rat; type: functional; settings: in the assay text read “orally” for “subcutaneously”
Rattus norvegicus [3] = test: Tested for Iron clearance of compound, when administered orally at a dose 150 umol/kg in bile duct cannulated rat; Inactive
Rattus norvegicus [4] = organism: Rattus norvegicus; test: Tested for formation constant of the compound; type: functional

| Compound | Efficiency (Rattus norvegicus [1]) | Iron clearence (Rattus norvegicus [2]) [µg/kg] | Iron clearence (Rattus norvegicus [3]) | Kf (Rattus norvegicus [4]) [M⁻¹] |
| --- | --- | --- | --- | --- |
| CC(=O)N(O)CCCCCNC(=O)CCC(=O)N(O)CCCCCNC(=O)CCC(=O)N(O)CCCCCN [DEFEROXAMINE] | 2.8% and 1% | – | – | – |
| O=C(O)[C@@H]1CSC(c2ncccc2O)=N1 | 3.9% | 166 | – | – |
| O=C(O)C1CCSC(c2ncccc2O)=N1 (stereo not drawn) | – | – | inactive | – |
| O=C(O)[C@H]1CSC(c2ncccc2O)=N1 | 2.4% | 101 | – | 4e+29 |
| CN(O)C(=O)[C@H]1CSC(c2ncccc2O)=N1 | 3.1% | – | – | – |
